In paper PMC7906020, “Trp-Containing Antibacterial Peptides Impair Quorum Sensing and Biofilm Development in Multidrug-Resistant Pseudomonas aeruginosa and Exhibit Synergistic Effects With Antibiotics” (Frontiers in Microbiology, 2021):
Converted amounts (≈) assume the structure as drawn. “And” between values parts separate entries of the source, which are not always exact repeats. Equal values may be shown once. Read-outs that look alike come from different tables or passages of the source. Peptide text beside a SMILES is read from it.

How the values were obtained:
MRPA0108 strain [1] = experiment: MIC of antibiotics alone and in combination with 1/4 × MIC peptide; assay type: cell-based, Pseudomonas aeruginosa; details: for fold reduction of MIC of the antibiotic: antibiotic in combination with Trp-containing peptides at 1/4 × MIC, range over the peptides
Protocol: FIGURE 6 Antibacterial activity of antibiotics in combination with the Trp-containing peptides. Bacterial cultures were treated with a series of concentration of antibiotics ceftazidime (A), piperacillin (B), and levofloxacin (C) in the absence (control) and presence of a 1/4 × MIC peptide concentration at 37C overnight. The OD600 was recorded using a microtiter plate reader. The MIC was defined as the lowest antibiotics concentration that inhibited 95% of the bacterial growth. Phenylalanyl arginyl β-naphthylamide (PAβN), a broad-spectrum inhibitor for efflux pump, was used as a positive control. Each data point represents an average of six independent experiments. *P < 0.05 and **P < 0.01 indicate statistically significant differences between antibiotics alone and antibiotics in combination with peptide.

[2] = system: LasB elastase of MRPA0108; experiment: LasB elastase activity, elastin-Congo red method; assay type: cell-based, Pseudomonas aeruginosa; details: peptide at 1/4 × MIC, 24 h, 37°C; ECR substrate, OD495/OD600; vs control; triplicate
Protocol: The culture supernatant was obtained after centrifugation at 12,000×g for 10 min. (1) LasB elastase activity was measured using elastin-Congo red (ECR) as the substrate, as described by [Pattnaik et al. (2018)]. Briefly, 100 μl of the culture supernatant was added to 900 μl of ECR buffer (100 mM Tris-HCl, 1 mM CaCl2, pH 7.5) containing 10 mg of ECR and then incubated with shaking at 37°C for 18 h. Then, 100 μl of 0.12 M EDTA was added to stop the reaction. The insoluble ECR was removed by centrifugation, and the supernatant absorbance was measured at 495 nm. The optical density (OD) 495 nm/OD 600 nm represents the elastase activity. (2) LasA protease activity was measured as follows ([Pattnaik et al., 2018]): first, the culture supernatant was filtered to remove the bacterial cells, and then 150 μl of sterile-filtered supernatant was added to 2% azocasein (prepared in 50 mM Tris-HCl) and incubated for 4 h at 37°C. Trichloroacetic acid (TCA, 10%) was added to precipitate the undigested substrate. After centrifugation at 10,000 rpm for 10 min, 1 M NaOH was added to the supernatant, and the relative protease activity was measured at OD 440 nm. (3) The pyocyanin assay was based on the absorbance of excreted pyocyanin at 520 nm in an acidic solution ([Kong et al., 2005]). Three milliliters of culture supernatant were mixed with 2 ml of chloroform for 20 min, and then the pyocyanin from the chloroform phase was reextracted using 0.2 M HCl for 15 min to obtain a pink-colored pyocyanin solution. The OD 520 nm was measured to evaluate the change in pyocyanin content. (4) Rhamnolipid detection was carried out as previously described ([Wittgens et al., 2011]). Briefly, 500 μl of culture supernatant was mixed with 500 μl of ethyl acetate and vortexed vigorously for 15 s to extract rhamnolipid. After centrifugation at 10,000×g for 5 min at 4°C, the organic phase containing rhamnolipids was obtained and evaporated at room temperature overnight. […] The absorbance was measured at 420 nm. (5) The level of C4-HSL was quantified by GC-MS as previously described ([Guo et al., 2012]).

[3] = system: rhamnolipid production in MRPA0108; experiment: Rhamnolipid production, orcinol method; assay type: cell-based, Pseudomonas aeruginosa; details: peptide at 1/4 × MIC, 24 h, absorbance 420 nm, vs control, triplicate
Protocol: The culture supernatant was obtained after centrifugation at 12,000×g for 10 min. (1) LasB elastase activity was measured using elastin-Congo red (ECR) as the substrate, as described by [Pattnaik et al. (2018)]. Briefly, 100 μl of the culture supernatant was added to 900 μl of ECR buffer (100 mM Tris-HCl, 1 mM CaCl2, pH 7.5) containing 10 mg of ECR and then incubated with shaking at 37°C for 18 h. Then, 100 μl of 0.12 M EDTA was added to stop the reaction. The insoluble ECR was removed by centrifugation, and the supernatant absorbance was measured at 495 nm. The optical density (OD) 495 nm/OD 600 nm represents the elastase activity. (2) LasA protease activity was measured as follows ([Pattnaik et al., 2018]): first, the culture supernatant was filtered to remove the bacterial cells, and then 150 μl of sterile-filtered supernatant was added to 2% azocasein (prepared in 50 mM Tris-HCl) and incubated for 4 h at 37°C. Trichloroacetic acid (TCA, 10%) was added to precipitate the undigested substrate. After centrifugation at 10,000 rpm for 10 min, 1 M NaOH was added to the supernatant, and the relative protease activity was measured at OD 440 nm. (3) The pyocyanin assay was based on the absorbance of excreted pyocyanin at 520 nm in an acidic solution ([Kong et al., 2005]). Three milliliters of culture supernatant were mixed with 2 ml of chloroform for 20 min, and then the pyocyanin from the chloroform phase was reextracted using 0.2 M HCl for 15 min to obtain a pink-colored pyocyanin solution. The OD 520 nm was measured to evaluate the change in pyocyanin content. (4) Rhamnolipid detection was carried out as previously described ([Wittgens et al., 2011]). Briefly, 500 μl of culture supernatant was mixed with 500 μl of ethyl acetate and vortexed vigorously for 15 s to extract rhamnolipid. After centrifugation at 10,000×g for 5 min at 4°C, the organic phase containing rhamnolipids was obtained and evaporated at room temperature overnight. The rhamnolipid extract dissolved in ultrapure water was mixed with orcinol reagent (0.19% orcinol in 53% H2SO4) and incubated at 80°C for 30 min. The absorbance was measured at 420 nm. (5) The level of C4-HSL was quantified by GC-MS as previously described ([Guo et al., 2012]).

MRPA0108 biofilms = experiment: Confocal laser scanning microscopy of biofilms (LIVE/DEAD staining); assay type: cell-based, Pseudomonas aeruginosa; details: 24 h; for percentage of dead/live cells in biofilm: SYTO9/PI, control 8.7%
Protocol: Biofilms of MRPA0108 were visualized by confocal microscopy. Mid-log growth-phase bacteria were diluted to 1 × 10^7 CFU/ml. […] LB liquid medium and erythromycin were used as negative and positive controls, respectively. After incubation, the supernatant was removed, and the slides were washed and stained in a dark environment for 30 min using a LIVE/DEAD BacLight^TM Bacterial Viability Kit (Invitrogen, Life Technologies, Shanghai, China). The slides were washed three times and imaged with a confocal laser scanning microscope (LSM 710, Carl Zeiss, Germany) with excitation/emission wavelengths of 480/500 and 490/635 nm for SYTO9 and propidium iodide (PI), respectively. SYTO9 was used to indicate live bacteria, and PI was used to mark dead bacteria.

[4] = system: exopolysaccharide production in MRPA0108; experiment: Exopolysaccharide determination, phenol-H2SO4 method; assay type: cell-based, Pseudomonas aeruginosa; details: phenol-H2SO4, 490 nm
Protocol: (§1) Exopolysaccharides were determined using the phenol-H2SO4 method. Briefly, after incubation, the cultures were centrifuged at 10,000 rpm for 15 min, and the pellets were resuspended in high-salt buffer (10 mM KPO4, 5 mM NaCl, 2.5 mM MgSO4, pH 7.0), followed by recentrifugation at 10,000 rpm for 30 min. The resulting supernatant was mixed with three volumes of chilled ethanol (100%) and incubated overnight at 4°C. The precipitated exopolysaccharide was added to a mixture containing cold phenol and H2SO4, and the absorbance of the solution was measured at 490 nm. Alginate content was determined using the H2SO4-carbazole method. Briefly, after incubation, the precooled cultures were mixed with an H2SO4 solution (4:1) and vortexed in ice water, and then 0.2% carbazole dissolved in ethanol was added. The mixture was revortexed and incubated at 55°C for 30 min, and the OD 530 nm was measured.

[5] = system: alginate production in MRPA0108; experiment: Alginate determination, H2SO4-carbazole method; assay type: cell-based, Pseudomonas aeruginosa; details: OD 530 nm
Protocol: as §1

MRPA0108 strain [6] = details: previous study, ref Han et al., 2020; cited from earlier work
From the text: Supplement Table_1.docx, table 1: Table S1 Biological characteristics and antibacterial activities of the Trp-containing antimicrobial peptides (32) | column: MIC(μM)

[7] = cited from earlier work
From the text: Supplement Table_1.docx, table 1: Table S1 Biological characteristics and antibacterial activities of the Trp-containing antimicrobial peptides (32) | column: Hemolysis (μM)

MRPA0108 = experiment: Checkerboard assay (FICI) of peptides with antibiotics; assay type: cell-based, Pseudomonas aeruginosa; details: MRPA0108, 24 h 37°C, median of at least three experiments, synergy ≤ 0.5, additive 0.5-1, indifference 1-2
Protocol: The synergistic effect of peptides and antibiotics was evaluated using the checkerboard method, in which the fractional inhibitory concentration index (FICI) was used to analyze the type of interaction between compounds ([Berditsch et al., 2015]). A 100 μl inoculum of 10^5 CFU/ml planktonic bacteria was added to the respective wells of 96-well microtiter plates, and then serial dilutions of peptide and antibiotic at 100 μl volumes were added to each well and incubated at 37°C for 24 h. The OD 600 nm value was measured with a microplate plate reader (Varioskan Flash Microplate Reader, Thermo Fisher Scientific Co., Beijing) as an indicator of growth inhibition. The resulting checkerboard contained each combination of peptide and antibiotic in 9 doubly increasing concentrations, with wells containing the highest concentration of each antibiotic at opposite corners. The concentrations tested for every combination of peptide-antibiotic were their respective MICs. MH medium and the peptide/antibiotic combination served as negative and positive controls, respectively. The FICI is calculated as FICa plus FICb, where FICa is the MIC of the peptide in the presence of antibiotics/the MIC of the peptide alone, and FICb is the MIC of the antibiotic in the presence of peptide/the MIC of the antibiotic alone. Drug interactions were defined as follows: synergy, FICI ≤ 0.5; additive effect, 0.5 < FICI ≤ 1; and indifference, 1 < FICI ≤ 2 ([Hollander et al., 1998]; [Yoon et al., 2004]). The results were recorded in at least three independent experiments, and the median FICI values were used in the analysis.

[8] = system: β-lactamase activity in MRPA0108 cells; experiment: β-Lactamase activity assay (nitrocefin kit) in treated cells; assay type: cell-based, Pseudomonas aeruginosa; details: MRPA0108 cells treated with antibiotic alone, compared to control
Protocol: β-lactamase activity was measured by using a β-lactamase assay kit (YIASEN Biotech Co., Ltd., Shanghai, China) according to the manufacturer’s instructions. Briefly, mid-log growth-phase bacteria were diluted to 1 × 10^8 CFU/ml and treated with I1W or L12W at concentrations ranging from 3.13 to 50 μM for 12 h at 37°C. After induction, the cultures were harvested by centrifugation at 5,000 rpm at 4°C, washed three times with PBS buffer (pH 7.2), and then resuspended in the same buffer. The cells were sonicated on ice for 15 min, and the cell lysates containing β-lactamase were collected by centrifugation at 12,000 rpm for 30 min at 4°C. Fifty microliters of the prepared β-lactamase-containing lysates was mixed with 50 μl of assay buffer containing nitrocefin and reacted at room temperature in a dark environment for 20 min. Nitrocefin hydrolysis was measured spectrophotometrically at 490 nm. Concurrently, the total protein content was determined with a Bradford assay using the same supernatant. One milliunit of β-lactamase is defined as 1 nanomole of nitrocefin hydrolyzed per minute per microgram of protein.

[9] = lowest concentration inhibiting 95% of growth, overnight 37°C, six experiments

| Compound | fold reduction of MIC of the antibiotic (MRPA0108 strain [1]) | inhibition of rhamnolipid production [3] | MIC (MRPA0108 strain [6]) | Hemolysis [7] | FICI in combination with ceftazidime (MRPA0108) | FICI in combination with piperacillin (MRPA0108) | also measured |
| --- | --- | --- | --- | --- | --- | --- | --- |
| C[C@H]1COc2c(N3CCN(C)CC3)c(F)cc3c(=O)c(C(=O)O)cn1c23 [levofloxacin] | 0–4 fold | – | – | – | – | – | – |
| CC[C@H](C)[C@H](N)C(=O)N[C@@H](CCCCN)C(=O)N[C@@H](CCCCN)C(=O)N[C@@H](Cc1c[nH]c2ccccc12)C(=O)N[C@@H](CC(C)C)C(=O)N[C@@H](CO)C(=O)N[C@@H](CCCCN)C(=O)N[C@H](C(=O)N[C@@H](CCCCN)C(=O)N[C@@H](CCCCN)C(=O)N[C@@H](CC(C)C)C(=O)N[C@@H](CC(C)C)C(=O)N[C@@H](CCCCN)C(N)=O)[C@@H](C)CC [I4W] (H-IKKWLSKIKKLLK-NH2; N-terminus and C-terminus assumed) | – | 43.9% | 6.25 µM (≈ 10.2 µg/mL) | > 500 µM | – | – | decrease of LasB elastase activity [2]: 22.3%; average biofilm thickness (MRPA0108 biofilms; after treatment with low concentrations of peptide (1 × MIC or 2 × MIC), 37°C, control biofilm 6 μm): 1.5–2.5 μm; percentage of dead/live cells in biofilm (MRPA0108 biofilms; peptide at 1 × MIC): 31.2%; percentage of dead/live cells in biofilm (MRPA0108 biofilms; peptide at 2 × MIC): 41.7%; reduction of exopolysaccharide production ([4]; peptide at 1/4 × MIC, overnight 37°C): 25.0%; reduction of exopolysaccharide production ([4]; peptide at 1 × MIC): 65.2%; reduction of exopolysaccharide production ([4]; peptide concentration increased onefold from 1/4 × MIC): 42.4%; inhibition of alginate production ([5]; peptide at 1/4 × MIC): 47%; inhibition of alginate production ([5]; peptide at 1 × MIC): 68% |
| IKKILSKIKKWLK-NH2 [L11W] | – | 24.3% | 25 µM | – | 0.25 | 0.28–0.49 and 0.34 | Hemolysis ([7]; as previously reported, ref Bi et al., 2013): > 500 µM |
| CCN1CCN(C(=O)N[C@@H](C(=O)N[C@@H]2C(=O)N3[C@@H]2SC(C)(C)[C@@H]3C(=O)O)c2ccccc2)C(=O)C1=O [piperacillin, reference compound] | 2–11 fold | – | – | – | – | – | increase of β-lactamase activity [8]: 1.8 fold |
| CC(C)(O/N=C(\C(=O)N[C@@H]1C(=O)N2C(C(=O)[O-])=C(C[n+]3ccccc3)CS[C@H]12)c1csc(N)n1)C(=O)O [ceftazidime] | 8–32 fold | – | – | – | – | – | MIC of antibiotic alone (MRPA0108 strain [1]; [9]): 30 µM; MIC of antibiotic in combination with 1/4 × MIC L12W (MRPA0108 strain [1]; [9]): 0.94 µM; increase of β-lactamase activity [8]: fourfold |
| IKKWWSKIKKLLK-NH2 [I4WL5W] | – | 37.5% | 12.5 µM | > 500 µM | 0.43 | 0.68 | FICI in combination with levofloxacin (MRPA0108): 1.12 |
| WKKIWSKIKKLLK-NH2 [I1WL5W] | – | 38.8% | 12.5 µM | > 500 µM | 0.37 | 0.59 | FICI in combination with levofloxacin (MRPA0108): 0.75 |
